Structures are written as SMILES. Entries after “also recorded” stand apart in the source; their conditions may differ.

Type in all cases: in vivo, mouse
In assay [1] the test system is pancreatic islets (β-cells). Kind of assay: Pancreatic islet size (insulin immunofluorescence) and pancreatic insulin content (ELISA). The settings on record: Ob/Ob and Db/Db models. Here is the method: Immunofluorescence and Immunostaining Microscopy-Paraffin embedded pancreatic tissue sections were incubated with antibodies against: insulin (mouse monoclonal 1:300, #1061, Beta Cell Biology Consortium). We utilized Alexa-fluor 488 conjugated anti-mouse secondary antibody (1:500) (Invitrogen, Carlsbad, Calif.) for immunofluorescence labeling of insulin followed by visualization using a Nikon TE2000 inverted fluorescence microscope (Nikon, Inc).
Pancreatic Insulin Measurements-Pancreatic insulin levels were measured in lysates from pancreatic tissues using an ultrasensitive Insulin ELISA Kit (Alpco, Inc. Salem, N.H.) as per the manufacturers' instructions. Insulin concentrations were normalized to pancreatic protein concentrations determined using the DC protein assay (Bio-Rad, Inc. Hercules, Calif.) according to the manufacturers' protocol. Endocrine hormones levels are reported as mean±standard error of the mean (S.E.M) and P-values calculated using one-way analysis of variance followed by Bonferroni multiple comparison test post-hoc analysis.
Measurement of Pancreatic Endocrine Cell Mass.—Pancreatic endocrine cell mass was determined using a direct point counting method as previously described. […]

The subject of another assay is HF-fed C57/BL6 mice. Description: Metabolic studies (body weight, GTT) in HF-fed wild type mice, 4 months. The settings on record: obese HF-fed mice, 3.0 mg/100 ml drinking water. Here is the method: Mice, diet, and drug treatment. Dietary Obesity Studies: Wild type (wt) male C57/BL6 male mice were maintained on either a standard laboratory chow-fed diet (Con) with 13% kcal fat, (diet #5053, Lab Diet, Inc, St. Louis, Mo.) or a high fat, western style diet (HFD) with 45% kcals from fat, (diet #58126, Lab Diet, Inc., St. Louis, Mo.) for 4 months. […]
(§1) Metabolic Measurements-Glucose tolerance was performed using an intraperitoneal glucose tolerance test (GTT) as previously described (Trasino et al., Vitamin A Deficiency Causes Hyperglycemia and Loss of Pancreatic β-Cell Mass, J Biol Chem. 2014 Dec. 1. pii: jbc.M114.616763). […] Tail vein blood glucose was measured at 20, 40, 60 and 120 minutes after injection using a FreeStyle Lite Blood Glucose Monitoring System (Abbott Diabetes Care, Inc. Alameda, Calif.). To determine insulin secretion responses to glucose, serum fractions were isolated between 0-60 minutes post glucose injections and insulin concentrations were measured using an Ultrasensitive Insulin ELISA Kit (Alpco, Inc. Salem, N.H.). Random blood glucose measurements were taken from tail veins of 4 mice per group at 2-3 random time points daily Means are expressed as±standard error of the mean (S.E.M) and P-values were calculated using one-way analysis of variance followed by Bonferroni post-hoc analysis.

For the next assay, the system named is HFD-fed C57/BL6 mice. Description: Acute administration (8 days) to HFD-fed mice: body weight, intake, random glucose, GTT, ITT. Here is the method:
FIG. 31. Acute administration of Retinoic Acid Receptor β (RARβ) agonist AC261066 reverses high fat induced glucose intolerance and insulin resistance. A-C) Body weights, water and food intake of wild type C57/B16 male mice after 3 months of being fed either: a standard chow (13% Kcal/fat) diet (Wt Con, n=4), a high fat (45% Kcal/fat) diet (HFD, n=4) or 3 months of a HFD mice plus 8 days of administration of the RARβ agonist AC261066 (n=4) in their drinking water at a dose of 5.4 mg/Kg BW/day. On day 8 mice were tested for glucose intolerance and insulin resistance. D and E) Random glucose and glucose tolerance test (GTT) of mice described in A. F) Insulin tolerance test of mice described in A.
as §1, with “Random blood glucose measurements were taken from tail veins of 4 mice per group at 2-3 random time points daily Means are expressed as±standard error of the mean (S.E.M) and P-values were calculated using one-way analysis of variance followed by Bonferroni post-hoc analysis.” left out

The test system of another assay is Ob/Ob and Db/Db mice. Description: Metabolic studies (body weight, GTT, insulin secretion, ITT) in Ob/Ob and Db/Db mice, 8 weeks.

`CCCCOCCOc1nc(-c2ccc(C(=O)O)c(F)c2)sc1C` [AC261066]: the pancreatic insulin content entry in assay [1] is reported as “diminishes”. In addition, the “number of large pancreatic islets (enlarged β-cells)” value in assay [1] (HF-fed mice) is recorded as “diminishes”. Moreover, the body weights entry in the assay with HF-fed C57/BL6 mice was “significant reductions”; in the assay with Ob/Ob and Db/Db mice (genetically obese and diabetic Ob/Ob and Db/Db mice) it was “significant reductions”. Moreover, the random glucose levels result in the assay on HFD-fed C57/BL6 mice (after 24 hours of administration) was “significant reductions”. For the same molecule, in the assay with HFD-fed C57/BL6 mice (after 8 days of administration), the “hyperglycemia (glucose intolerance) and insulin resistance” value is “reverses; also recorded: significant reductions”. Further, the pancreatic insulin secretion entry in the assay on Ob/Ob and Db/Db mice (Ob/Ob mice) was “decreased”.

The record behind these values is US20220304945A1, “METHODS OF TREATING METABOLIC SYNDROME RELATED CONDITIONS USING RETINOIC ACID RECEPTOR AGONISTS” (Cornell University, priority 2014, published 2022).
